Some test systems named below: A549 NSCLC; ACHN renal; COLO 205 colon; KM12 colon; LOX IMVI melanoma; MCF7 breast; MDA-MB-231 breast; NCI-H460 lung; OVCAR-5 ovarian; SNB-19 CNS.
Test in all cases: NCI-60 cell line screen, 48 h

Several values for one entry are separate records, joined by “and”; a condition that tells them apart may be missing. Identical values can stand only once.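 Cultured in 96-well plates, cells were exposed to test compound for 48 hours across five concentrations. GI50: concentration for 50% inhibition of growth. TGI marks complete inhibition of growth.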

In the case of `Cc1c2c(nn1C)CSCc1cc(n(C)n1)CSc1cc(c3ccccc3c1)OCCCc1c(C(=O)O)n(C)c3c-2c(Cl)ccc13`, the GI50 in the experiment on A549 NSCLC is 4.38 µM; in the experiment with ACHN renal, 4.1 µM; in the experiment with COLO 205 colon, 3.36 µM; in the experiment with KM12 colon, 3.3 µM; with LOX IMVI melanoma, 2.87 µM; with MCF7 breast, 0.575 µM. Besides, the GI50 in the experiment with MDA-MB-231 breast is 5.32 µM; with NCI-H460 lung it was 3.23 µM; in the experiment on OVCAR-5 ovarian, 5.11 µM; with SNB-19 CNS, 3.56 µM. The TGI in the experiment with A549 NSCLC is 15.6 µM; with ACHN renal it was 14 µM; in the experiment with COLO 205 colon, 12.2 µM; in the experiment with KM12 colon, 11.9 µM; in the experiment on LOX IMVI melanoma, 12.1 µM; with MCF7 breast, 11.3 µM. In addition, the TGI in the experiment on MDA-MB-231 breast amounted to 18.2 µM; in the experiment on NCI-H460 lung it was 10.7 µM; in the experiment with OVCAR-5 ovarian it was 17.6 µM; in the experiment with SNB-19 CNS it was 13.9 µM.
On to `COc1ccc(OC)c(-c2c(C#N)c(N)nc(N3CCOCC3)c2C#N)c1`, for which the GI50 is over 100 µM in the experiment on A549 NSCLC; 67.9 µM in the experiment with ACHN renal; over 100 µM in the experiment on COLO 205 colon; over 100 µM in the experiment with KM12 colon; over 100 µM in the experiment with LOX IMVI melanoma; over 100 µM with MCF7 breast. Also, the GI50 in the experiment on MDA-MB-231 breast is 40.3 µM; in the experiment on NCI-H460 lung, over 100 µM; in the experiment on OVCAR-5 ovarian, over 100 µM; with SNB-19 CNS it was over 100 µM. Also, the TGI with A549 NSCLC, with ACHN renal, in the experiment on COLO 205 colon, in the experiment with KM12 colon, with LOX IMVI melanoma and in the experiment on MCF7 breast was over 100 µM each time. For the same compound, the TGI in the experiment on MDA-MB-231 breast, with NCI-H460 lung, in the experiment on OVCAR-5 ovarian and in the experiment with SNB-19 CNS was over 100 µM in each case.
In the case of `Nc1ncnc2c1nnn2C1CCC(CP(=O)(O)O)C1` (centres undefined), the TGI in the experiment with A549 NSCLC, with ACHN renal, in the experiment with COLO 205 colon, in the experiment on KM12 colon, in the experiment on LOX IMVI melanoma and in the experiment with MCF7 breast was over 100 µM throughout. For the same compound, the TGI in the experiment with MDA-MB-231 breast, in the experiment with NCI-H460 lung, in the experiment with OVCAR-5 ovarian and with SNB-19 CNS was over 100 µM in each case.
Take `O=C1c2c(O)cccc2C(C2OC(CO)C(O)C(O)C2O)c2cc(CO)cc(O)c21` (centres undefined): the TGI in the experiment on A549 NSCLC, with ACHN renal, in the experiment on COLO 205 colon, in the experiment on KM12 colon, with LOX IMVI melanoma and in the experiment on MCF7 breast was over 100 µM throughout. Besides, the TGI in the experiment on MDA-MB-231 breast, in the experiment on NCI-H460 lung, in the experiment on OVCAR-5 ovarian and with SNB-19 CNS was over 100 µM throughout.
Take `CCOc1cc2ncc(C#N)c(Nc3ccc(OCc4ccccn4)c(Cl)c3)c2cc1NC(=O)/C=C/CN(C)C`: the GI50 in the experiment with A549 NSCLC is 0.371 µM and 0.377 µM; with ACHN renal, 0.0358 µM and 0.0817 µM; in the experiment on COLO 205 colon, 1.04 µM and 0.598 µM; in the experiment on KM12 colon, 1.52 µM and 1.98 µM; in the experiment with LOX IMVI melanoma, 0.724 µM and 0.82 µM; in the experiment with MCF7 breast, 1.65 µM and 0.927 µM. Also, the GI50 was 1.35 µM and 1.48 µM with MDA-MB-231 breast; 1.01 µM and 0.891 µM with NCI-H460 lung; 0.416 µM and 0.351 µM in the experiment with OVCAR-5 ovarian; 2.52 µM in the experiment with SNB-19 CNS. The TGI in the experiment on A549 NSCLC is 1.94 µM and > 10 µM; in the experiment on ACHN renal it was 4.14 µM and > 10 µM; in the experiment on COLO 205 colon, 24.7 µM and > 5.21 µM; in the experiment with KM12 colon it was 5.29 µM and > 7.34 µM; with LOX IMVI melanoma, 2.29 µM and > 5.73 µM; with MCF7 breast, 3.22 µM and > 6 µM. The TGI in the experiment with MDA-MB-231 breast was 2.99 µM and 5.63 µM; in the experiment with NCI-H460 lung, 2.88 µM and > 9.38 µM; with OVCAR-5 ovarian it was 7.82 µM and > 10 µM; in the experiment on SNB-19 CNS, 22.9 µM and > 10 µM.
As to `O=C(COc1ccc(/C=C2\Oc3ccccc3C2=O)cc1)Nc1nc2c(s1)CCCC2`, the GI50 is 3.09 µM with A549 NSCLC; 17.4 µM in the experiment on ACHN renal; over 73.2 µM in the experiment with COLO 205 colon; 0.403 µM with KM12 colon; 0.0175 µM in the experiment with LOX IMVI melanoma; 15.8 µM with MCF7 breast. Also, the GI50 in the experiment on MDA-MB-231 breast was 0.709 µM; with NCI-H460 lung, 30.3 µM; in the experiment on OVCAR-5 ovarian it was 51.2 µM; with SNB-19 CNS, 46.9 µM. The TGI with A549 NSCLC is 33 µM; in the experiment on ACHN renal, over 100 µM; with COLO 205 colon, over 100 µM; with KM12 colon it was 27.5 µM; with LOX IMVI melanoma it was 0.0317 µM; in the experiment on MCF7 breast it was over 100 µM. In addition, the TGI in the experiment on MDA-MB-231 breast is 6.38 µM; in the experiment with NCI-H460 lung, over 100 µM; in the experiment with OVCAR-5 ovarian, over 100 µM; in the experiment with SNB-19 CNS, over 100 µM.
Take `CC[N+]1(C)CCC(O)(c2ccc(Cl)c(Cl)c2)C(C(=O)c2ccc(Cl)c(Cl)c2)C1` (centres undefined): the TGI in the experiment with A549 NSCLC, with ACHN renal, in the experiment with COLO 205 colon, with KM12 colon, in the experiment with LOX IMVI melanoma and in the experiment with MCF7 breast was over 10 µM throughout. Moreover, the TGI in the experiment on NCI-H460 lung, in the experiment with OVCAR-5 ovarian and in the experiment on SNB-19 CNS was over 10 µM in each case.
`O=C1c2ccccc2-c2c1c1ccccc1c(=O)n2CCN1CCOCC1`: the GI50 in the experiment on A549 NSCLC is 64.8 µM; in the experiment with ACHN renal it was 29.8 µM; with COLO 205 colon, over 100 µM; with KM12 colon, 61.8 µM; in the experiment with LOX IMVI melanoma it was 40.5 µM; with MCF7 breast, 43.7 µM. Also, the GI50 in the experiment with MDA-MB-231 breast is over 100 µM; in the experiment with NCI-H460 lung, 55.4 µM; in the experiment on OVCAR-5 ovarian, over 100 µM; in the experiment on SNB-19 CNS, over 100 µM. The TGI in the experiment with A549 NSCLC was over 100 µM; in the experiment on ACHN renal, 92 µM; in the experiment on COLO 205 colon, over 100 µM; in the experiment with KM12 colon it was over 100 µM; in the experiment with LOX IMVI melanoma, over 100 µM; in the experiment on MCF7 breast it was over 100 µM. In addition, the TGI with MDA-MB-231 breast, in the experiment with NCI-H460 lung, in the experiment with OVCAR-5 ovarian and with SNB-19 CNS was over 100 µM each time.

Values taken from PubChem BioAssay (NCI).
